According to patent publication US20070190539A1, “Human MLR single nucleotide polymorphisms associated with dose-dependent congestive heart failure and methods of use thereof” (Bristol-Myers Squibb Company, priority 2005, published 2007):

Assay: Phase II clinical trials CV168-006 and CV168-008: diagnosis of congestive heart failure in patients treated with compound A
Type: in vivo, human
Experimental: Genomic DNA samples from patients enrolled in two Bristol-Myers Squibb Company Phase II clinical trials CV168-006 and CV168-008 trials were genotyped for 1 SNP identified in the human mineralocorticoid receptor gene (see Example 1) and evaluated for association with congestive heart failure.
498 subjects enrolled in the CV168-006 trial and 232 subjects from the CV168-008 trial were analyzed in this study. All analyses were based on data collected up to 24 weeks, which was the duration of the short-term phase of the trials. DNA was extracted from frozen blood by a third-party (Genaissance Inc, North Carolina) using a salting-out method (Gentra Systems). All subjects gave written informed consent.
(§1) At the time of this analysis four individuals were diagnosed as having developed congestive heart failure. All four were in the CV168-006 trial; three were being treated with 10 mg of compound A and one with 20 mg of compound A. All SNPs that were analyzed above were also tested for association with CHF using contingency tables.
Sample. Investigators in the BMS clinical trials diagnosed dose-dependent congestive heart failure in some subjects.
Genomic DNA samples from patients enrolled in two Bristol-Myers Squibb Company Phase II clinical trials CV168-006 and CV168-008 trials were genotyped for 1 SNP identified in the human PPAR-gamma gene (see Example 7) and evaluated for association with congestive heart failure.
as §1, with “CV 168-006” for “CV168-006”
Genomic DNA samples from patients enrolled in two Bristol-Myers Squibb Company Phase II clinical trials CV168-006 and CV168-008 trials were genotyped for 1 SNP identified in the human Adiponectin gene (see Example 13) and evaluated for association with congestive heart failure.

## COc1ccc(OC(=O)N(CC(=O)O)Cc2ccc(OCCc3nc(-c4ccccc4)oc3C)cc2)cc1 [compound A, N-[(4-methoxyphenoxy)carbonyl]-N-[[4-[2-(5-methyl-2-phenyl-4-oxazolyl)ethoxy]phenyl]methyl]glycine]
CV168-006 trial, 10 mg of compound A, data up to 24 weeks
  individuals who developed congestive heart failure while treated with 10 mg: three
CV168-006 trial, 20 mg of compound A, data up to 24 weeks
  individuals who developed congestive heart failure while treated with 20 mg: one
Phase II trials, patients, high doses = 10 and 20 mg arms
  dose dependence of congestive heart failure (CHF): observed only at high doses
All subjects analysed (498 in CV168-006, 232 in CV168-008), data up to 24 weeks, all four cases in the CV168-006 trial
  individuals diagnosed as having developed congestive heart failure: four
